Results on 8 compounds are retold here after US10941137B2, “Difluoromethyl-phenyl triazoles” (Boehringer Ingelheim International GmbH, priority 2018, dated 2021).

One series has as its system human MDR1 P-gp. The series can be described thus: Efflux in MDCK cells transfected with the human MDR1 gene (MDCK-PGP permeability). In kind it is in vitro ADME, canine. As to conditions: dog, pH 7.4, 37° C.; for efflux ratio: PEBA/PEAB; for Papp A→B: apical-to-basal apparent permeability (PEAB). The protocol:
Assessment of Efflux in Madin-Darby Canine Kidney (MDCK) Cells Transfected with the 30 Human MDR1 Gene to Assess Brain Penetration (Drug Metabolism and Disposition February 2008, 36 (2) 268-275; DOI: https://doi.org/10.1124/dmd.107.017434) Apparent permeability coefficients (PE) of the compounds across the MDCK-MDR1 cell monolayers are measured (pH 7.4, 37° C.) in apical-to-basal (AB) and basal-to-apical (BA) transport direction. AB permeability (PEAB) represents drug absorption from the blood into the 35 brain and BA permeability (PEBA) drug efflux from the brain back into the blood via both passive permeability as well as active transport mechanisms mediated by efflux and uptake transporters that are expressed on the MDCK-MDR1 cells, predominantly by the overexpressed human MDR1 P-gp. The compounds are assigned to permeability/absorption classes by comparison of the AB permeabilities with the AB permeabilities of reference compounds with known in vitro permeability and oral absorption in the human. Identical or similar permeabilities in both transport directions indicate passive permeation, vectorial permeability points to additional active transport mechanisms. Higher PEBA than PEAB indicates the involvement of active efflux mediated by MDR1 P-gp. Active transport is concentration-dependently saturable.
MDCK-MDR1 cells (1-2×10e5 cells/1 cm2 area) are seeded on filter inserts (Costar transwell polycarbonate or PET filters, 0.4 μm pore size) and cultured (DMEM) for 7 days. Subsequently, the MDR1 expression is boosted by culturing the cells with 5 mM sodium butyrate in full medium for 2 days. Compounds are dissolved in appropriate solvent (like DMSO, 1-20 mM stock solutions). Stock solutions are diluted with HTP-4 buffer (128.13 mM NaCl, 5.36 mM KCl, 1 mM MgSO4, 1.8 mM CaCl2, 4.17 mM NaHCO3, 1.19 mM Na2HPO4×7H2O, 0.41 mM NaH2PO4xH2O, 15 mM HEPES, 20 mM glucose, 0.25% BSA, pH 7.4) to prepare the transport solutions (0.1-300 μM compound, final DMSO <=0.5%). The transport solution (TL) is applied to the apical or basolateral donor side for measuring A-B or B-A permeability (3 filter replicates), respectively. The receiver side contains the same buffer as the donor side. Samples are collected at the start and end of experiment from the donor and at various time intervals for up to 2 hours also from the receiver side for concentration measurement by HPLC-MS/MS or scintillation counting. Sampled receiver volumes are replaced with fresh receiver solution.

A further series has as its target T1, α5β2γ2 GABAA receptor (Homo sapiens, UniProt P18507+P31644).
T1 sequence (P31644 32-462): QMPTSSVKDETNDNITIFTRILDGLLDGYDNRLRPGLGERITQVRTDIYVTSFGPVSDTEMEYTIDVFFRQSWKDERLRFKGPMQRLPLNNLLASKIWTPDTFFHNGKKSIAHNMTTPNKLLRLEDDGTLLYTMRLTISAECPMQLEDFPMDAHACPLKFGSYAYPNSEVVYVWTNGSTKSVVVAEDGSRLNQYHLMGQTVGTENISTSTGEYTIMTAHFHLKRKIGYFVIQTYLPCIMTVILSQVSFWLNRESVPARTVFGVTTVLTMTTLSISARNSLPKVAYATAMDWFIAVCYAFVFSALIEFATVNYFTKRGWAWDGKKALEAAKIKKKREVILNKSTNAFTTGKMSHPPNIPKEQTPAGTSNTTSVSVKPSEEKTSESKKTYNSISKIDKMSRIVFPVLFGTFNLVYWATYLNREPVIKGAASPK
T1 sequence (P18507 40-376 limits assumed): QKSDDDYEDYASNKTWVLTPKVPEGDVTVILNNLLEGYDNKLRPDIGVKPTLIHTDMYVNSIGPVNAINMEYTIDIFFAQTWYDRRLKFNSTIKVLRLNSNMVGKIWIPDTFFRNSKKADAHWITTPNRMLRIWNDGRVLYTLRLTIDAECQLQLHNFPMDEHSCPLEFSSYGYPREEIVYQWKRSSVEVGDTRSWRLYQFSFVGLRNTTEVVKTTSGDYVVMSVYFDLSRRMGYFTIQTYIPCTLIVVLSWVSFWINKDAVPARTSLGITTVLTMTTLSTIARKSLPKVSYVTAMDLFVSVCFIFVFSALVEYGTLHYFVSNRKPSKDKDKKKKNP
The series can be described thus: Assay B: modulation of α5β2γ2 GABAA receptor, two-electrode voltage clamp in oocytes. The format is cell-based. Particulars: for EC50: oocytes, TEVC, co-application with GABA 0.5 μM (EC5-20), read-out: Assay B: GABAA α5β3γ2 EC50. In short, it runs like this: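 Human α5:β2:γ2 cRNA injected into oocytes at 3:1:3; TEVC currents recorded with compound co-applied with 0.5 μM GABA (EC5-20), five concentrations 0.000316–3.16 μM ascending per oocyte. Background-subtracted peak currents normalized to GABA control as % change; Hill fit gives maximal efficacy and log EC50 with 95% CI.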

For `Cc1nnn(-c2ccc(C(F)F)cc2)c1COc1ccc(-c2cncnc2)nn1` [Example 22], in the series with human MDR1 P-gp, the efflux ratio turned out to be 1.1 and the apical-to-basolateral permeability (Papp A→B) was 49.6 ×10⁻⁶ cm/s. On α5β2γ2 GABAA receptor, the Assay B: GABAA α5β3γ2 Emax vs GABA was -17.3% and the EC50 is 0.5 nM.
The like results for `Cc1nnn(-c2ccc(C(F)F)cc2)c1COc1ccc(-n2ccc(C(F)(F)F)n2)nn1` [Example 24] were, in that order, 0.4, 51.3 ×10⁻⁶ cm/s, -9% and 76.9 nM.
As for `Cc1nnn(-c2ccc(C(F)F)cc2)c1COc1ccc(-n2cc(C(F)(F)F)cn2)nn1` [Example 25], in the series on human MDR1 P-gp, the efflux ratio worked out at 0.3 and the Papp A→B is 56.1 ×10⁻⁶ cm/s. The Assay B: GABAA α5β3γ2 Emax vs GABA at α5β2γ2 GABAA receptor was -0.7%.
Regarding `COC(=O)c1cn(-c2ccc(OCc3c(C)nnn3-c3ccc(C(F)F)cc3)nn2)cn1` [Example 29], in the series with human MDR1 P-gp, the efflux ratio was 2.8 and the Papp A→B turned out to be 18.8 ×10⁻⁶ cm/s. For the same compound, at α5β2γ2 GABAA receptor, the Assay B: GABAA α5β3γ2 Emax vs GABA was -29% and the EC50 stood at 1.8 nM.
For `CC(=O)c1cn(-c2ccc(OCc3c(C)nnn3-c3ccc(C(F)F)cc3)nn2)cn1` [Example 32], in the series on human MDR1 P-gp, the efflux ratio was 3.4 and the Papp A→B was found to be 17.6 ×10⁻⁶ cm/s. For the same compound, on α5β2γ2 GABAA receptor, the Assay B: GABAA α5β3γ2 Emax vs GABA is -22.8% and the EC50 was 5.7 nM.
For `Cc1ncn(-c2ccc(OCc3c(C)nnn3-c3ccc(C(F)F)cc3)nn2)n1` [Example 33], in that order: 0.9, 52.2 ×10⁻⁶ cm/s, -22% and 11.2 nM.
`Cc1nnn(-c2ccc(C(F)F)cc2)c1COc1ccc(-n2cnc(C[N+](C)(C)C)c2)nn1.O=C([O-])C(F)(F)F` [Example 36, ({1-[6-({1-[4-(difluoromethyl)phenyl]-4-methyl-1H-1,2,3-triazol-5-yl}methoxy)pyridazin-3-yl]-1H-imidazol-4-yl}methyl)trimethylazanium trifluoroacetate]: in the series on human MDR1 P-gp, the efflux ratio came out at 0.5 and the Papp A→B came to 0.6 ×10⁻⁶ cm/s. On α5β2γ2 GABAA receptor, the Assay B: GABAA α5β3γ2 Emax vs GABA was -31.5% and the EC50 came to 6.2 nM.
As for `Cc1nnn(-c2ccc(C(F)F)cc2)c1COc1ccc(-n2cnc(C(=O)O)c2)nn1` [Example 37, 1-[6-({1-[4-(difluoromethyl)phenyl]-4-methyl-1H-1,2,3-triazol-5-yl}methoxy)pyridazin-3-yl]-1H-imidazole-4-carboxylic acid], in the series with human MDR1 P-gp, the efflux ratio was found to be 0.8 and the Papp A→B came out at 0.7 ×10⁻⁶ cm/s. At α5β2γ2 GABAA receptor, the Assay B: GABAA α5β3γ2 Emax vs GABA was -28.2% and the EC50 came out at 4.7 nM.
